Reference: patent US20250353859A1, “COMPOUNDS AS CCR6 INHIBITORS” (Hoffmann-La Roche Inc., priority 2023, published 2025)

Assays:
Type in all cases: cell-based
Human CD4+ T cells = assay: CD4+ T cells chemotaxis assay towards CCL20; conditions: CD4+ T cell, 3 h
From the text: Human CD4+ T cells were isolated from buffy coats of healthy donors using aCD4+ T Cell Isolation Kit(Miltenyi Biotec 130-096-533). Isolated T cells were stimulated overnight with anti-CD3 and anti-CD28 antibodies (Biolegend 300314/302934) in growth medium (RPMI1640, 10% heat-inactivated FBS, 1× pen/strep (Gibco 15140)). For the chemotaxis assay, Corning Transwell plates were used with a pore size of 5 m (Corning 3388). T cells were counted and diluted to 6*10^6 cells/ml in chemotaxis medium (RPMI1640, 1% BSA, pen/strep). Compounds were four-fold serially diluted in DMSO. Further dilutions were made in chemotaxis medium. Cells were incubated with test compounds for 30 min at 37° C. prior to initiation of the assay (3*10^6 cells/ml). Final DMSO concentration in the assay was 0.2%. Wells of the Transwell plates were filled with 200 μl chemotaxis medium containing 150 ng/ml CCL20 (R&D systems 360-MP). 50 μl of the cell/compound suspension was added to the inserts of the Transwell plates (150,000 cells/insert). The Transwell plates were placed in an incubator at 37° C., 5% CO2 for 3 h. After 3 h, the number of migrated cells was quantified using CellTiter Glo (Promega). Percentage inhibition values were calculated based on the low and high signal obtained with 0.2% DMSO in chemotaxis medium without and with CCL20, respectively. The relative Log IC50 was determined with GraphPad Prism 9 using a four-parameter dose-response model.

human CCR6 [1] = molecular target: T1, human CCR6 (Homo sapiens, UniProt P51684); assay: Human CCR6-CRE reporter assay; set-up: The second construct contained the open reading frame of human CCR6 in the pUNO1 backbone; host or cells: 293FT cells (transient transfection with TransIT-293)
T1 sequence (P51684 1-374): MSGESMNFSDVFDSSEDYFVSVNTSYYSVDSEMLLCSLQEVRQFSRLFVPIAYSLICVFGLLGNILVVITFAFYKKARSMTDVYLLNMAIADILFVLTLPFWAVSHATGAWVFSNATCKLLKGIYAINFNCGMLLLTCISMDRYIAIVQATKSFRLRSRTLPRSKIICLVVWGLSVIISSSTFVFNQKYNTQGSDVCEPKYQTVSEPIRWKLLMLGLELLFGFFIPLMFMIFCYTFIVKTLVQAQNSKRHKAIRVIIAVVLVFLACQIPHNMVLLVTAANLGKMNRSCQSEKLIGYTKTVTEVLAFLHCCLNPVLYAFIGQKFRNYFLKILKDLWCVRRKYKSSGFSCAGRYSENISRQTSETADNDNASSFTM
Procedure: 293FT cells were transfected with 2 constructs using TransIT-293 (Mirus). The first construct (pGL4.29, Promega) expressed the luciferase reporter gene luc2P in response to the binding of cAMP-induced CREB to the CREelement in its promoter. The second construct contained the open reading frame of human CCR6 in the pUNO1 backbone under the control of an enhanced CMV promoter(InVivoGen).48 h after transfection, cells were harvested and diluted to 750,000 cells/ml in culture medium (DMEM, 10% FBS, 1× pen/strep(Gibco 15140)). Compounds were 2.5-fold serially diluted in DMSO. Further dilutions were made in assay medium (DMEM, 10% FBS, 1× pen/strep, 6 μM Forskolin, 6 nM CCL20). 4 μl of the compound solution was added to a white MW384 plate, followed by […] of the cell suspension. Final DMSO concentration in the assay was 0.1%. The MW384 plate was placed in an incubator at 37° C., 5% CO2 for 5 h. Luciferase activity was determined by addition of 24 μl of a 2.5× diluted BriteLite luciferase solution(Perkin Elmer), followed by luminescence measurement using a VICTOR Plate reader (Perkin Elmer). […] The relative Log IC50 was determined with GraphPad Prism 9 using a four-parameter dose-response model.

human CCR6 [2] = molecular target: T1, human CCR6; assay: CHO-K1 CCR6 chemotaxis assay towards CCL20; conditions: CHO-K1 cells overexpressing human CCR6; 100 ng/ml CCL20, 4 h; relative Log IC50
From the text: Cells overexpressing human CCR6 were used in the chemotaxis assay (DiscoverX, cAMP Hunter™ CHO-K1 CCR6 Gi Cell Line). Growth medium of these cells consisted of DMEM/F12, non-essential Amino acids (1×NEAA, Gibco 11140050), 10% FBS and 1× pen/strep (Gibco 15140). For the chemotaxis assay, Corning Transwell plates were used with a pore size of 8 m (Corning 351164). Cells were harvested using trypsin and diluted to 4*10^6 cells/ml in chemotaxis medium (DMEM, 0.25% BSA, pen/strep). Compounds were four-fold serially diluted in DMSO. Further dilutions were made in chemotaxis medium. Cells were incubated with test compounds for 30 min at 37° C. prior to initiation of the assay (2*10^6 cells/ml). Final DMSO concentration in the assay was 0.2%. Wells of the Transwell plates were filled with 200 μl chemotaxis medium containing 100 ng/ml CCL20 (R&D systems 360-MP). 50 μl of the cell/compound suspension was added to the inserts of the Transwell plates (100,000 cells/insert). The Transwell plates were placed in an incubator at 37° C., 5% CO2 for 4 h. After 4 h, the number of migrated cells was quantified using CellTiter Glo (Promega). Percentage inhibition values were calculated based on the low and high signal obtained with 0.2% DMSO in chemotaxis medium without and with CCL20, respectively. The relative Log IC50 was determined with GraphPad Prism 9 using a four-parameter dose-response model.

[3] = 293FT cells transfected with human CCR6 and CRE-luciferase, Forskolin + CCL20, 5 h, relative Log IC50, read-out: CCR6-CRE reporter (converted)

| Structure (SMILES) | IC50 (Human CD4+ T cells) | IC50 (human CCR6 [1]; [3]) | IC50 (human CCR6 [2]) | IC50 (human CCR6 [1]; scaffold variant X = S, R1 = CF3, read-out: Activity in human CCR6-CRE reporter assay) |
| --- | --- | --- | --- | --- |
| N#Cc1ccc(-c2ccc(S(=O)(=O)N3CCC(Nc4ccc(OC(F)(F)F)cc4)CC3)cc2)cc1 [Example 1, 4′-[(4-{[4-(trifluoromethoxy)phenyl]Amino}piperidin-1-yl)sulfonyl]-[1,1′-biphenyl]-4-carbonitrile] | 0.0501 µM | 0.0398 µM | – | – |
| CNC(=O)c1cccc(-c2ccc(S(=O)(=O)N3CCC(Nc4ccc(OC(F)(F)F)cc4)CC3)cc2)c1 [Example 4, N-methyl-4′-[(4-{[4-(trifluoromethoxy)phenyl]Amino}piperidin-1-yl)sulfonyl]-[1,1′-biphenyl]-3-carboxamide] | 0.02 µM | 0.1 µM | – | – |
| Cc1n[nH]c2ccc(-c3ccc(S(=O)(=O)N4CCC(Nc5ccc(OC(F)(F)F)cc5)CC4)cc3)cc12 [Example 6, 1-[4-(3-methyl-1H-indazol-5-yl)benzenesulfonyl]-N-[4-(trifluoromethoxy)phenyl]piperidin-4-amine] | 0.0501 µM | 0.126 µM | – | – |
| N#Cc1c[nH]c2ccc(-c3ccc(S(=O)(=O)N4CCC(Nc5ccc(OC(F)(F)F)cc5)CC4)cc3)cc12 [Example 13, 5-{4-[(4-{[4-(trifluoromethoxy)phenyl]Amino}piperidin-1-yl)sulfonyl]phenyl}-1H-indole-3-carbonitrile] | 0.01 µM | 0.0794 µM | – | – |
| O=S(=O)(c1ccc(-c2ccc3nccn3c2)cc1)[C@H]1CC[C@H](Nc2ccc(OC(F)(F)F)cc2)CC1 [Example 43, N-[trans-4-(4-{imidazo[1,2-a]pyridin-6-yl}benzenesulfonyl)cyclohexyl]-4-(trifluoromethoxy)aniline] | – | 0.0794 µM | 0.0794 µM | – |
| N#Cc1c[nH]c2ccc(-c3ccc(S(=O)(=O)[C@H]4CC[C@H](Nc5ccc(SC(F)(F)F)cc5)CC4)cc3)cc12 [Example 44, 5-(4-{[trans-4-({4-[(trifluoromethyl)sulfanyl]phenyl}Amino)cyclohexyl]sulfonyl}phenyl)-1H-indole-3-carbonitrile] | – | 0.02 µM | 0.00631 µM | – |
| O=S(=O)(c1ccc(-c2ccc3nccn3c2)cc1)[C@H]1CC[C@H](Nc2cccc(SC(F)(F)F)c2)CC1 [Example 46, N-[trans-4-(4-{imidazo[1,2-a]pyridin-6-yl}benzenesulfonyl)cyclohexyl]-3-[(trifluoromethyl)sulfanyl]aniline] | – | 0.0631 µM | 0.794 µM | – |
| CC(C)c1cnc2ccc(-c3ccc(S(=N)(=O)[C@H]4CC[C@H](Nc5ccc(SC(F)(F)F)cc5)CC4)cc3)cn12 (stereo partly drawn) [Example 51, {4-[3-(propan-2-yl)imidazo[1,2-a]pyridin-6-yl]phenyl}[trans-4-({4-[(trifluoromethyl)sulfanyl]phenyl}Amino)cyclohexyl](imino)-λ^6-sulfanone] | – | 0.0794 µM | 0.794 µM | – |
| Cc1cc(-c2ccc(S(=O)(=O)N3CCC(Nc4ccc(OC(F)(F)F)cn4)CC3)cc2)cn2c(C(C)C)cnc12 [Example 55, N-(1-{4-[8-methyl-3-(propan-2-yl)imidazo[1,2-a]pyridin-6-yl]benzenesulfonyl}piperidin-4-yl)-5-(trifluoromethoxy)pyridin-2-amine] | – | 0.0794 µM | 0.002 µM | – |
| Cc1cc(-c2ccc(S(=O)(=O)N3CCC(Nc4ccc(OC(F)(F)F)cn4)CC3)cc2)cn2c(C(C)C)nnc12 [Example 57, N-(1-{4-[8-methyl-3-(propan-2-yl)-[1,2,4]triazolo[4,3-a]pyridin-6-yl]benzenesulfonyl}piperidin-4-yl)-5-(trifluoromethoxy)pyridin-2-amine] | – | 0.0398 µM | 0.00794 µM | – |
| CC(C)c1nnc2cnc(-c3ccc(S(=O)(=O)N4CCC(Nc5ccc(OC(F)(F)F)cn5)CC4)cc3)cn12 [Example 59, N-(1-{4-[3-(propan-2-yl)-[1,2,4]triazolo[4,3-a]pyrazin-6-yl]benzenesulfonyl}piperidin-4-yl)-5-(trifluoromethoxy)pyridin-2-amine] | – | 0.0631 µM | 0.00794 µM | – |
| NC(=O)c1cc(-c2ccc(S(=O)(=O)N3CCC(Nc4ccc(SC(F)(F)F)cn4)CC3)cc2)ccn1 [Example 63, 4-(4-{[4-({5-[(trifluoromethyl)sulfanyl]pyridin-2-yl}amino)piperidin-1-yl]sulfonyl}phenyl)pyridine-2-carboxamide] | – | – | 0.0158 µM | 0.074 µM |
| CC(C)c1nnc2ccc(-c3ccc(S(=O)(=O)N4CCC(Nc5ccc(SC(F)(F)F)cn5)CC4)cc3)cn12 [Example 65, N-(1-{4-[3-(propan-2-yl)-[1,2,4]triazolo[4,3-a]pyridin-6-yl]benzenesulfonyl}piperidin-4-yl)-5-[(trifluoromethyl)sulfanyl]pyridin-2-amine] | 0.00501 µM | 0.0251 µM | – | – |
| CC(C)c1nnc2cnc(-c3ccc(S(=O)(=O)N4CCC(Nc5ccc(SC(F)(F)F)cn5)CC4)cc3)cn12 [Example 66, N-(1-{4-[3-(propan-2-yl)-[1,2,4]triazolo[4,3-a]pyrazin-6-yl]benzenesulfonyl}piperidin-4-yl)-5-[(trifluoromethyl)sulfanyl]pyridin-2-amine] | 0.00158 µM | 0.0316 µM | – | – |
| Cc1nnc2ccc(-c3ccc(S(=O)(=O)N4CCC(Nc5ccc(SC(F)(F)F)cn5)CC4)cc3)cn12 [Example 67, N-[1-(4-{3-methyl-[1,2,4]triazolo[4,3-a]pyridin-6-yl}benzenesulfonyl)piperidin-4-yl]-5-[(trifluoromethyl)sulfanyl]pyridin-2-amine] | 0.0126 µM | 0.0398 µM | – | – |
| Cc1cc(-c2ccc(S(=O)(=O)N3CCC(Nc4ccc(SC(F)(F)F)cn4)CC3)cc2)cn2c(C(C)C)nnc12 [Example 68, N-(1-{4-[8-methyl-3-(propan-2-yl)-[1,2,4]triazolo[4,3-a]pyridin-6-yl]benzenesulfonyl}piperidin-4-yl)-5-[(trifluoromethyl)sulfanyl]pyridin-2-amine] | 0.002 µM | 0.0631 µM | – | – |
| Cc1n[nH]c2ncc(-c3ccc(S(=O)(=O)[C@H]4CC[C@H](Nc5ccc(SC(F)(F)F)cc5)CC4)cc3)cc12 [Example 72, N-[trans-4-(4-{3-methyl-1H-pyrazolo[3,4-b]pyridin-5-yl}benzenesulfonyl)cyclohexyl]-4-[(trifluoromethyl)sulfanyl]aniline] | 0.00398 µM | 0.0398 µM | – | – |
